According to US6214563A, “Photon reducing agents for reducing undesired light emission in assays” (Aurora Biosciences Corporation, priority 1998, dated 2001):

Legend:
[1] = Residual coumarin fluorescence with non-dye quenchers and particulates (Example 3); details: ex. 395 nm, em. 460 nm; pH 7.5
[2] = tested on: T-cells; details: cited from earlier work
[3] = tested on: arthritis; details: in vivo; cited from earlier work
[4] = Effect of 50% methanol on coumarin fluorescence and phenol red absorbance (Example 2); format: physicochemical
Protocol: To further investigate the ability of a photon reducing agent to reduce fluorescence of a solution, fluorescence of a dye in the presence of a photon reducing agent was monitored in the presence and absence of methanol.
The fluorescence from a fluorophore in the presence of a photon reducing agent (phenol red) was determined in both aqueous buffer and aqueous buffer containing 50% (vol/vol) methanol. A 10 μM solution of 6-chloro-7-hydroxy coumarin-3-carboxylate was prepared in 39 mM phosphate buffer pH 7.5 and in a 1:1 mixture of same phosphate buffer and methanol. 1% (vol/vol) of a 100 mM aqueous Phenol Red stock solution was added to the solutions.

[5] = Coumarin fluorescence as a function of path length (Example 6); details: 10 μM coumarin + 1 mM phenol red; FIG. 10A
Protocol: To further investigate the ability of photon reducing agents to reduce fluorescence emitted from a solution, fluorescence emitted from a solution containing a fluorophore in the presence of a photon reducing agent was monitored as a function sample thickness.
A photon reducing agent, phenol red, was tested with a fluorophore, coumarin, as a function of sample thickness (path length). The experiment was conducted using a microscope equipped with epifluorescence. The liquid samples were drawn into low fluorescence capillary tubes of fixed path length (Vitro Dynamics, Rockaway N.J.) as indicated in the graphs. The following samples were evaluated:
The samples were excited using a 405/20 filter via a 425 dichroic reflector through a 20× objective (Zeiss 20× Fluar). Emitted light was filtered through a 460/50 filter and detected by an intensified CCD camera (Stanford Photonics, Menlo Park, Calif.). The detector output was converted to a 512×512 pixel eight-bit digital image. The data reflect the average intensity within a 20×20 pixel area within the capillary. The background intensity of the field was subtracted from all values.

[6] = Absorption maxima of dyes (Table 1); format: physicochemical; details: value printed in parentheses
[7] = Front face solution fluorescence of coumarin with and without phenol red (Example 1); details: 1 mM phenol red; 0.5 μM coumarin; 50% methanol/phosphate buffer pH 7.5
Protocol: To investigate the ability of a photon reducing agent to reduce fluorescence of a solution, emission of a fluorophore from a sample was monitored in the presence and absence of a photon reducing agent.
Fluorescence from a solution of a blue fluorescent dye, 6-chloro-7-hydroxy coumarin 3-carboxylate, was determined in the presence and absence of a 1 mM phenol red as the photon reducing agent. A solution of 0.5 μM 6-chloro-7-hydroxy coumarin-3-carboxylate in solvent containing 50% (vol/vol) aqueous 39 mM phosphate buffer pH 7.5 and 50% (vol/vol) methanol was prepared. After taking a front face fluorescence spectrum of this solution on a Spex Fluorolog 2, 1% (vol/vol) of a 100 mM aqueous Phenol Red stock solution was added and another spectrum taken. Front face fluorescence refers to exciting the sample at a right angle to the sample surface and collecting emitted light (for example, from the excited region or emission region) at 12.5 degrees from such angle of excitation.

## NCCN(CCN)CCN [tris (2-aminoethyl) amine]
[1]
  concentration required (collisional quenchers): higher than 100 mM

## cyclosporin A
[2]
  prevention of T-cell proliferation in vitro: prevent proliferation of T-cells in vitro

## C[C@]12CCC(=O)C=C1CC[C@@H]1[C@@H]2[C@@H](O)C[C@@]2(C)[C@H]1CC[C@]2(O)C(=O)CO [Hydrocortisone]
[3]
  efficacy in rabbit knee arthritis model: efficacious in this model

## O=C(O)c1cc2cc(Cl)c(O)cc2oc1=O [6-chloro-7-hydroxy coumarin-3-carboxylate]
[4]; absence of a photon reducing agent
  increase of fluorescence in 50% methanol buffer: about 30%

## O=S1(=O)OC(c2ccc(O)cc2)(c2ccc(O)cc2)c2ccccc21 [phenol red]
[4]; 50% methanol buffer
  decrease of absorbance at the emission wavelength of the coumarin in 50% methanol buffer: about 20%
[5]
  attenuation of coumarin fluorescence: significantly attenuated
[6]
  absorption maximum, value in parentheses: 423 nm
[7]
  reduction of front face fluorescence: 70 fold
